Earlier results in patent US8703719B1, “Method and composition for improved muscle performance” (Bio-Engineered Supplements and Nutrition, Inc., priority 2009, dated 2014).

Details: oral; weight training individuals

In the case of C[N+](C)(C)CC(=O)[O-] [trimethylglycine (betaine), Trimethylglycine], the “increase in bench-throw power compared with placebo” value is listed as 16% and the “increase in isometric bench-press force compared with placebo” value is listed as 28%.
